Patent US12570655B2, “Cysteine covalent modifiers of AKT1 and uses thereof” (Terremoto Biosciences, Inc., priority 2023, dated 2026)
Where two headings read alike, the source gives them in different places.

Assays:
Format in all cases: cell-based
AKT2 = biological target: T1, AKT2 (Homo sapiens, UniProt P31751); test: Live cell AKT2 target engagement by NanoBRET competitive probe displacement; conditions: HEK293 cells transfected with kinase-NanoLuciferase fusion, 2 h at 37° C.
T1 construct: expressed in transfected cells; host or cells: HEK293
Summary of the method: (§1)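 IC50 fitted (Hill, log inhibitor vs response) to BRET signal, E600/E460 ratio, measured with extracellular NanoLuc inhibitor present. Intact transfected HEK293 cells bearing NanoLuc-tagged kinase were co-incubated 2 h, 37 °C, with compound dilution series and ~EC50 ATP-competitive fluorescent tracer.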

AKT1 E17K = biological target: T2, AKT1 E17K (Homo sapiens, UniProt P31749, E17K); test: Live cell AKT1 E17K target engagement by NanoBRET competitive probe displacement; conditions: HEK293 cells transfected with kinase-NanoLuciferase fusion, 2 h at 37° C.
T2 construct: expressed in transfected cells; host or cells: HEK293
Summary of the method: as §1

AKT1 WT = biological target: T3, AKT1 WT (Homo sapiens, UniProt P31749); test: Live cell AKT1 WT target engagement by NanoBRET competitive probe displacement; conditions: HEK293 cells transfected with kinase-NanoLuciferase fusion, 2 h at 37° C.
T3 construct: expressed in transfected cells; host or cells: HEK293
Summary of the method: as §1

[1] = tested on: LAPC4 prostate cancer cells; test: Antiproliferative effects in LAPC4 cells (CellTiter Glo); conditions: LAPC4 cells (AKT1 E17K allele), read-out: LAPC4 proliferation IC50
Summary of the method: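 Growth inhibition was measured by CellTiter Glo ATP luminescence after 72 h compound exposure of 1,000 seeded cells/well. The cells were AKT1 E17K-expressing LAPC4 prostate cancer cells maintained in IMDM plus 12% FBS. IC50 values came from Hill-equation fits.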

T1 sequence (P31751 whole entry, the tested form may be a part): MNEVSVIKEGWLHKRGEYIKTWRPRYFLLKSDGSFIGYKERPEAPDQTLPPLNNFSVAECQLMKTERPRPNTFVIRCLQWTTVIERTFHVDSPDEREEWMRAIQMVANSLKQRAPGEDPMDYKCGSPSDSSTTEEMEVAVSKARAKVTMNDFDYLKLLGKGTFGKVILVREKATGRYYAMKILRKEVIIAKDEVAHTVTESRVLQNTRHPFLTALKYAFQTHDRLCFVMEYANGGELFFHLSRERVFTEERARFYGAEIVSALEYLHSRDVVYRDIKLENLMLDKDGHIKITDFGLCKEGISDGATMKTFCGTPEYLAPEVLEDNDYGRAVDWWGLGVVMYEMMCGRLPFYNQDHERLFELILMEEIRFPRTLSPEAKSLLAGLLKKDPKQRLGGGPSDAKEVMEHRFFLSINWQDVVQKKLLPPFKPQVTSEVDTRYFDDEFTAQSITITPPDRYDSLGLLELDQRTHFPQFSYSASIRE
T2 sequence (P31749 whole entry E17K, the tested form may be a part): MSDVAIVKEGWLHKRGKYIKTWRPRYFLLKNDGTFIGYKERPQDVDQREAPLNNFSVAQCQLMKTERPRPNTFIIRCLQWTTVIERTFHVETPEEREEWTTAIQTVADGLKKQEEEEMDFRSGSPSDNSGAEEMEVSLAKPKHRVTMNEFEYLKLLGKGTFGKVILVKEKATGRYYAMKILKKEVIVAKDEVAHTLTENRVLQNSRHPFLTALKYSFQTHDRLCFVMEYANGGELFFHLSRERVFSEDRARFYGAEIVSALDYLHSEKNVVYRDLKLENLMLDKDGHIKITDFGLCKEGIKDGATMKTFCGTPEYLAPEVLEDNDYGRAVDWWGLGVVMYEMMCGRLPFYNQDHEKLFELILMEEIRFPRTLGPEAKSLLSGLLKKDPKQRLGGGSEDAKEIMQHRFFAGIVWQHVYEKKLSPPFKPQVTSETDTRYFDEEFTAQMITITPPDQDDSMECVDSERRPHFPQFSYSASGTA
T3 sequence (P31749 whole entry, the tested form may be a part): as the sequence (P31749 whole entry E17K, the tested form may be a part) above, with K17E counted along it

| Structure (SMILES) | IC50 (AKT2) [nM] | IC50 (AKT1 E17K) [nM] | IC50 (AKT1 WT) [nM] | IC50 ([1]; 72 h) [nM] | IC50 ([1]; Homo sapiens, LAPC4, 72 h) [nM] |
| --- | --- | --- | --- | --- | --- |
| C=CC(=O)N1CCCC(N[C@H]2CCc3cc(-n4c(-c5cccnc5N)nc5ccc(-n6cccn6)nc54)ccc32)CC1 (single isomer, unassigned) [Example 81, 1-((*)-4-(((S)-5-(2-(2-aminopyridin-3-yl)-5-(1H-pyrazol-1-yl)-3H-imidazo[4,5-b]pyridin-3-yl)-2,3-dihydro-1H-inden-1-yl)amino)azepan-1-yl)prop-2-en-1-one] | 1200 | > 1000 | 93.2 | 7600 | – |
| C=CC(=O)N1CCC(N[C@H]2CCc3cc(-n4c(-c5cccnc5N)nc5ccc(-n6cccn6)nc54)ccc32)C[C@@H]1COC (single isomer, unassigned) [Example 164, 1-((2R,4*)-4-(((S)-5-(2-(2-aminopyridin-3-yl)-5-(1H-pyrazol-1-yl)-3H-imidazo[4,5-b]pyridin-3-yl)-2,3-dihydro-1H-inden-1-yl)amino)-2-(methoxymethyl)piperidin-1-yl)prop-2-en-1-one] | 4100 | 475 | 58 | 489 | – |
| C=CC(=O)N1CCC(N[C@@H]2c3ccc(-n4c(-c5cccnc5N)nc5ccc(-n6cccn6)nc54)cc3C[C@@H]2F)CC1 [Example 76, 1-(4-(((1R,2S)-5-(2-(2-aminopyridin-3-yl)-5-(1H-pyrazol-1-yl)-3H-imidazo[4,5-b]pyridin-3-yl)-2-fluoro-2,3-dihydro-1H-inden-1-yl)amino)piperidin-1-yl)prop-2-en-1-one] | 232 | 60.1 | 23.3 | – | 369 |
| C=CC(=O)Nc1cnccc1C(=O)N[C@H]1CCc2cc(-n3c(-c4cccnc4N)nc4ccc(-n5cccn5)nc43)ccc21 [Example 41, N-[(1S)-5-[2-(2-aminopyridin-3-yl)-5-(pyrazol-1-yl)imidazo[4,5-b]pyridin-3-yl]-2,3-dihydro-1H-inden-1-yl]-3-(prop-2-enamido)pyridine-4-carboxamide] | 5060 | > 1000 | 305 | – | 9840 |
| C=CC(=O)N1CCOCC(N[C@H]2CCc3cc(-n4c(-c5cccnc5N)nc5ccc(-n6cccn6)nc54)ccc32)C1 (single isomer, unassigned) [Example 54, 1-((*)-6-(((S)-5-(2-(2-aminopyridin-3-yl)-5-(1H-pyrazol-1-yl)-3H-imidazo[4,5-b]pyridin-3-yl)-2,3-dihydro-1H-inden-1-yl)amino)-1,4-oxazepan-4-yl)prop-2-en-1-one] | 292 | 58.5 | 27.1 | 107 | – |
| C=CC(=O)N1CCC(N[C@H]2CCc3cc(-n4c(-c5cccnc5N)nc5ccc(-n6cccn6)nc54)ccc32)C[C@@H]1COC (single isomer, unassigned) [Example 165, 1-((2R,4*)-4-(((S)-5-(2-(2-aminopyridin-3-yl)-5-(1H-pyrazol-1-yl)-3H-imidazo[4,5-b]pyridin-3-yl)-2,3-dihydro-1H-inden-1-yl)amino)-2-(methoxymethyl)piperidin-1-yl)prop-2-en-1-one] | 163 | 143 | 39.3 | 187 | – |
| C=CC(=O)N1CCC(N[C@H]2CCc3cc(-n4c(-c5cccnc5N)nc5ccc(-n6cccn6)nc54)ccc32)C(O)C1 (single isomer, unassigned) [Example 139, 1-[(3*,4*)-4-{[(1S)-5-[2-(2-aminopyridin-3-yl)-5-(pyrazol-1-yl)imidazo[4,5-b]pyridin-3-yl]-2,3-dihydro-1H-inden-1-yl]amino}-3-hydroxypiperidin-1-yl]prop-2-en-1-one] | 114 | 29.7 | 13.5 | 41.9 | – |
| C=CC(=O)N1CC2CC[C@H]1CC2N[C@H]1CCc2cc(-n3c(-c4cccnc4N)nc4ccc(-n5cccn5)nc43)ccc21 (single isomer, unassigned) [Example 134, 1-[(1S,4S,5*)-5-{[(1S)-5-[2-(2-aminopyridin-3-yl)-5-(pyrazol-1-yl)imidazo[4,5-b]pyridin-3-yl]-2,3-dihydro-1H-inden-1-yl]amino}-2-azabicyclo[2.2.2]octan-2-yl]prop-2-en-1-one] | 2710 | 232 | 72.4 | 1150 | – |

Results, then the molecule that gave them:

| IC50 (AKT2) [nM] | IC50 (AKT1 E17K) [nM] | IC50 (AKT1 WT) [nM] | IC50 ([1]; 72 h) [nM] | IC50 ([1]; Homo sapiens, LAPC4, 72 h) [nM] | Structure (SMILES) |
| --- | --- | --- | --- | --- | --- |
| 114 | 36.9 | 1520 | 416 | – | C=CC(=O)N1CCC(N[C@H]2CCc3cc(-n4c(-c5cccnc5N)nc5ccc(C6CC6)nc54)ccc32)C(F)C1 (single isomer, unassigned) [Example 177, 1-((3*,4*)-4-(((S)-5-(2-(2-aminopyridin-3-yl)-5-cyclopropyl-3H-imidazo[4,5-b]pyridin-3-yl)-2,3-dihydro-1H-inden-1-yl)amino)-3-fluoropiperidin-1-yl)prop-2-en-1-one] |
| 362 | 32 | 2670 | – | 872 | C=CC(=O)N1CCC(N[C@H]2CCc3cc(-n4c(-c5cccnc5N)nc5ccc(C(F)(F)F)nc54)ccc32)CC1 [Example 348] |
| 23.8 | 7.44 | 95.1 | – | 54.9 | C=CC(=O)N1CCC(N[C@H]2CCc3cc(-n4c(-c5cccnc5N)nc5ccc(-n6ccc(OC7CC7)n6)nc54)ccc32)CC1 [Example 314, 1-(4-{[(1S)-5-[2-(2-aminopyridin-3-yl)-5-(3-cyclopropoxypyrazol-1-yl)imidazo[4,5-b]pyridin-3-yl]-2,3-dihydro-1H-inden-1-yl]amino}piperidin-1-yl)prop-2-en-1-one] |
| 26.7 | 18.1 | 33.2 | – | 71 | C#Cc1cccc(-c2ccc3nc(-c4cccnc4N)n(-c4ccc5c(c4)CC[C@@H]5NC4CCN(C(=O)C=C)CC4)c3n2)c1 [Example 178, 1-(4-{[(1S)-5-[2-(2-aminopyridin-3-yl)-5-(3-ethynylphenyl)imidazo[4,5-b]pyridin-3-yl]-2,3-dihydro-1H-inden-1-yl]amino}piperidin-1-yl)prop-2-en-1-one] |
| 79.8 | 23.7 | 1100 | 319 | – | C=CC(=O)N1CCC(N[C@H]2CCc3cc(-n4c(-c5cccnc5N)nc5ccc(C6CC6)nc54)ccc32)C[C@H]1C (single isomer, unassigned) [Example 211, 1-((2R,4*)-4-(((S)-5-(2-(2-aminopyridin-3-yl)-5-cyclopropyl-3H-imidazo[4,5-b]pyridin-3-yl)-2,3-dihydro-1H-inden-1-yl)amino)-2-methylpiperidin-1-yl)prop-2-en-1-one] |
| 27.2 | 17.8 | 104 | – | 184 | C=CC(=O)N1CCC(F)(CN[C@H]2CCc3cc(-n4c(-c5cccnc5N)nc5ccc(-n6cccn6)nc54)ccc32)CC1 [Example 184, (S)-1-(4-(((5-(2-(2-aminopyridin-3-yl)-5-(1H-pyrazol-1-yl)-3H-imidazo[4,5-b]pyridin-3-yl)-2,3-dihydro-1H-inden-1-yl)amino)methyl)-4-fluoropiperidin-1-yl)prop-2-en-1-one] |
| 73 | 13.8 | 432 | – | 103 | C=CC(=O)N1CCC(N[C@H]2CCc3cc(-n4c(-c5cccnc5N)nc5ccc(-c6nnc(C)s6)nc54)ccc32)CC1 [Example 257, (S)-1-(4-((5-(2-(2-aminopyridin-3-yl)-5-(5-methyl-1,3,4-thiadiazol-2-yl)-3H-imidazo[4,5-b]pyridin-3-yl)-2,3-dihydro-1H-inden-1-yl)amino)piperidin-1-yl)prop-2-en-1-one] |
| 108 | 23.8 | 588 | – | 509 | C=CC(=O)N1CCC(N[C@@H]2c3ccc(-n4c(-c5cccnc5N)nc5ccc(-n6ccc(C7CC7)n6)nc54)cc3CC2F)CC1 (single isomer, unassigned) [Example 297, 1-(4-(((1R,2*)-5-(2-(2-aminopyridin-3-yl)-5-(3-cyclopropyl-1H-pyrazol-1-yl)-3H-imidazo[4,5-b]pyridin-3-yl)-2-fluoro-2,3-dihydro-1H-inden-1-yl)amino)piperidin-1-yl)prop-2-en-1-one] |
| 102 | 11.6 | 652 | 440 | – | C=CC(=O)N1CCC(N[C@@H]2c3ccc(-n4c(-c5cccnc5N)nc5ccc(-n6ccc(C#N)n6)nc54)cc3CC2F)CC1 (single isomer, unassigned) [Example 312, 1-(3-((1R,2*)-1-((1-acryloylpiperidin-4-yl)amino)-2-fluoro-2,3-dihydro-1H-inden-5-yl)-2-(2-aminopyridin-3-yl)-3H-imidazo[4,5-b]pyridin-5-yl)-1H-pyrazole-3-carbonitrile] |
| 283 | 39 | 703 | – | 540 | C=CC(=O)N1CCC(N[C@H]2CCc3cc(-n4c(-c5cccnc5N)nc5ccc(C6CC(F)(F)C6)nc54)ccc32)CC1 [Example 227, 1-(4-{[(1S)-5-[2-(2-aminopyridin-3-yl)-5-(3,3-difluorocyclobutyl)imidazo[4,5-b]pyridin-3-yl]-2,3-dihydro-1H-inden-1-yl]amino}piperidin-1-yl)prop-2-en-1-one] |
